From patent US10669269B2, “Substituted N-(1H-indazol-4-yl)imidazo[1,2-a]pyridine-3-carboxamide compounds as type III receptor tyrosine kinase inhibitors” (ARRAY BIOPHARMA INC., priority 2010, dated 2020)
Where a name gives a salt, the structure may show the parent alone.

What was measured:
c-KIT = target: T1, c-KIT (Homo sapiens, UniProt P10721); test: c-KIT Cell-Based Assay (Example D); conditions: averaged IC50; phospho-c-KIT in M-07e cells stimulated with 150 ng/ml recombinant human SCF; read-out: cKIT Cell ELISA IC50
T1 construct: M-07e cells (human acute megakaryoblastic leukemia cell line) were serum-starved for 4 hours; endogenous in cells; host or cells: M-07e cells (human acute megakaryoblastic leukemia cell line)
Description: The ability of compounds of Formula I to inhibit c-KIT activation in cells was determined by the following assay. M-07e cells (human acute megakaryoblastic leukemia cell line) were serum-starved for 4 hours prior to treatment with compounds of Formula I for 1 hour. The concentration of compounds of Formula I was varied over a 9-point, 3-fold dilution series with 5,000 nM typically being the highest dose. Cell culture and treatment were carried out in a humidified 37° C., 5% CO2 incubator. Treated cells were stimulated with 150 ng/ml recombinant human SCF for 4 minutes to induce activation of c-KIT. Cells were lysed in a manner which preserves phosphoproteins, and the lysate was analyzed by ELISA (R&D Systems, Human Phospho-SCF R DuoSet IC DYC3527), in which total c-KIT protein in the lysate is captured and phosphotyrosine residues of c-Kit are detected. A standard curve, made using purified phospho-SCF R protein, was used to quantify phospho-c-KIT in compound-treated wells. A standard 4-parameter logistic model was fit to the inhibitor dose response curves, with the IC50 being defined as the concentration of inhibitor giving 50 percent of control (POC).

PDGFR beta = target: T2, PDGFR beta (Homo sapiens, UniProt P09619); test: Phospho PDGFR LICOR Cell Assay (Example B); type: cell-based; conditions: averaged IC50; PDGFR beta phosphorylation in HS27 human fibroblast cell line, PDGF-BB stimulation 10 minutes, normalized to total ERK
T2 construct: endogenous in cells; host or cells: HS27 human fibroblast cell line
Description: Compounds were screened for inhibition of PDGFR beta phosphorylation in the HS27 human fibroblast cell line. Cells were seeded into a 96 well tissue culture plate, then incubated overnight in a 37° C./5% CO2 incubator. The following day, cells were treated for one hour with test compound dilutions. After stimulation with PDGF-BB ligand for 10 minutes, cells were washed with PBS and fixed in 3.7% formaldehyde in PBS for 10 minutes. This was followed by washing in PBS/0.2% Triton X-100 and permeabilizing in 100% MeOH for 10 minutes. Cells were incubated in blocking buffer for 1 hour. Antibodies to phosphorylated PDGFRβ and total ERK were added to the cells and incubated for 3 hours. After washing with PBS/0.2% Triton X-100, the cells were incubated with fluorescently-labeled secondary antibodies for an additional hour. Cells were then washed with PBS and analyzed for fluorescence at both wavelengths using the Odyssey Infrared Imaging System (LI-COR Biosciences). Phosphorylated PDGFR signal was normalized to total ERK signal. A standard 4-parameter logistic model was fit to the inhibitor dose response curves, with the IC50 being defined as the concentration of inhibitor giving 50 percent of control (POC).

cFMS = target: T3, cFMS (Homo sapiens, UniProt P07333); test: cFMS Cell-Based Assay (Example C); conditions: averaged IC50; phospho-cFMS in THP-1 cells stimulated with 250 ng/mL recombinant human MCSF; read-out: cFMS Cell ELISA IC50
T3 construct: THP-1 cells (human acute monocytic leukemia cell line) were serum-starved for 4 hours; endogenous in cells; host or cells: THP-1 cells (human acute monocytic leukemia cell line)
Description: The ability of compounds of Formula I to inhibit cFMS activation in cells was determined by the following assay. THP-1 cells (human acute monocytic leukemia cell line) were serum-starved for 4 hours prior to treatment with compounds of Formula I for 1 hour. The concentration of compounds of Formula I was varied over a 9-point, 3-fold dilution series with 5,000 nM typically being the highest dose. Cell culture and treatment were carried out in a humidified 37° C., 5% CO2 incubator. Treated cells were stimulated with 250 ng/mL recombinant human MCSF for 1 minute to induce activation of cFMS. Cells were lysed in a manner which preserves phosphoproteins, and the lysate was analyzed by ELISA (R&D Systems, Human Phospho-M-CSF R DuoSet IC DYC3268), in which total cFMS protein in the lysate is captured and phosphotyrosine residues of cFMS are detected. A standard curve, made using purified phospho-M-CSF R protein, was used to quantify phospho-c-FMS in compound-treated wells. A standard 4-parameter logistic model was fit to the inhibitor dose response curves, with the IC50 being defined as the concentration of inhibitor giving 50 percent of control (POC).

T1 sequence (P10721 26-976): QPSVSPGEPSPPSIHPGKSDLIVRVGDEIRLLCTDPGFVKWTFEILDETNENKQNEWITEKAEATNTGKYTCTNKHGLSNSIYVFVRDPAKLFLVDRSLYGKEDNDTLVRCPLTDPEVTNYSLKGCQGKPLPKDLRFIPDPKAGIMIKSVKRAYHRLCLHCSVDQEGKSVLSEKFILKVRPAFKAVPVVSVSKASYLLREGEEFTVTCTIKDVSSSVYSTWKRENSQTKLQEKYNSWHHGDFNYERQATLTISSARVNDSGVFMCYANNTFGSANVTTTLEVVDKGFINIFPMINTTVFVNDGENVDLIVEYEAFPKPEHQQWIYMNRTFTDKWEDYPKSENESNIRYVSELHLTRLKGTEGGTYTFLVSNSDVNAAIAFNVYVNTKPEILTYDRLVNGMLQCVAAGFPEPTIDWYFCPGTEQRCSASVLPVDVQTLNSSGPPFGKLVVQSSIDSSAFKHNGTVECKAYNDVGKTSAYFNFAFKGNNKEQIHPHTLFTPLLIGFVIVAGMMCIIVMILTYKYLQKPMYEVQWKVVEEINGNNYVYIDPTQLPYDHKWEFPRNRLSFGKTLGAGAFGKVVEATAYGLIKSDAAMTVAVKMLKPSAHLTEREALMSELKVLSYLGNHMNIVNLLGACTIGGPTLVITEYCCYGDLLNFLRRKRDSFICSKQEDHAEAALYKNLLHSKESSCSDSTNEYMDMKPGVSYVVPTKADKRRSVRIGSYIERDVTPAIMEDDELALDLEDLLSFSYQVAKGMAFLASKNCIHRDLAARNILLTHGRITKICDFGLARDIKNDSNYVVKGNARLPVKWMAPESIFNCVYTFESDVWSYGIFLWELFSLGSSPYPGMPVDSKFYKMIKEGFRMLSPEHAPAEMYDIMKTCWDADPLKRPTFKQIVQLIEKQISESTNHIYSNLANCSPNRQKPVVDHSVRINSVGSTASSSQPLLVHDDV
T2 sequence (P09619 33-1106): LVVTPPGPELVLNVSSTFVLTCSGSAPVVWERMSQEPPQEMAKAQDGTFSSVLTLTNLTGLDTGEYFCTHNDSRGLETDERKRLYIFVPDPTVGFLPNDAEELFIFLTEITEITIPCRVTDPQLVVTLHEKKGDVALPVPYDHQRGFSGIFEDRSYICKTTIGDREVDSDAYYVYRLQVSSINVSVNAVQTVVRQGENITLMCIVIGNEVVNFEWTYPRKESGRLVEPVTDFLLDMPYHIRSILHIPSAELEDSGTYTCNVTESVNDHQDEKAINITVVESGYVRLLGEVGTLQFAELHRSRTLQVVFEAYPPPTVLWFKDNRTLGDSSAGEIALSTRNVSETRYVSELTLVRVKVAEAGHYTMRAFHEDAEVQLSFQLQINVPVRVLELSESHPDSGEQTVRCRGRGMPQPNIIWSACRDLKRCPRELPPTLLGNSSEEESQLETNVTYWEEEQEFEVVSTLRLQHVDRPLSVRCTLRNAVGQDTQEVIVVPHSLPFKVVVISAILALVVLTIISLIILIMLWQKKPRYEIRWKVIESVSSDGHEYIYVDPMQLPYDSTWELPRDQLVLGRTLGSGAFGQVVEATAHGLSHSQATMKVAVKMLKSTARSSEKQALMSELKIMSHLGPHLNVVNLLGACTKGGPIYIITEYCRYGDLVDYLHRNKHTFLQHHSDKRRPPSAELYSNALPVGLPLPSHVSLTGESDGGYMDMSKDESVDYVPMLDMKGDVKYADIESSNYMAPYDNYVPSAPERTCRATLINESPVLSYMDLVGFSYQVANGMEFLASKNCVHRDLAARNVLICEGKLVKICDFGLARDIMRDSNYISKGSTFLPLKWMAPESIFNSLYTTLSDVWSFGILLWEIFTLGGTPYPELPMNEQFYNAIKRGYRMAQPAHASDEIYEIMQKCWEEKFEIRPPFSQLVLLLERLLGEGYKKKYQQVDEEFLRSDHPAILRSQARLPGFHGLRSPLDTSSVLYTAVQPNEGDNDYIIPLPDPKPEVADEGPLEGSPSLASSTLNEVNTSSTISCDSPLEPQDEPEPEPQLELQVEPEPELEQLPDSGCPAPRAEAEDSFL
T3 sequence (P07333 20-972): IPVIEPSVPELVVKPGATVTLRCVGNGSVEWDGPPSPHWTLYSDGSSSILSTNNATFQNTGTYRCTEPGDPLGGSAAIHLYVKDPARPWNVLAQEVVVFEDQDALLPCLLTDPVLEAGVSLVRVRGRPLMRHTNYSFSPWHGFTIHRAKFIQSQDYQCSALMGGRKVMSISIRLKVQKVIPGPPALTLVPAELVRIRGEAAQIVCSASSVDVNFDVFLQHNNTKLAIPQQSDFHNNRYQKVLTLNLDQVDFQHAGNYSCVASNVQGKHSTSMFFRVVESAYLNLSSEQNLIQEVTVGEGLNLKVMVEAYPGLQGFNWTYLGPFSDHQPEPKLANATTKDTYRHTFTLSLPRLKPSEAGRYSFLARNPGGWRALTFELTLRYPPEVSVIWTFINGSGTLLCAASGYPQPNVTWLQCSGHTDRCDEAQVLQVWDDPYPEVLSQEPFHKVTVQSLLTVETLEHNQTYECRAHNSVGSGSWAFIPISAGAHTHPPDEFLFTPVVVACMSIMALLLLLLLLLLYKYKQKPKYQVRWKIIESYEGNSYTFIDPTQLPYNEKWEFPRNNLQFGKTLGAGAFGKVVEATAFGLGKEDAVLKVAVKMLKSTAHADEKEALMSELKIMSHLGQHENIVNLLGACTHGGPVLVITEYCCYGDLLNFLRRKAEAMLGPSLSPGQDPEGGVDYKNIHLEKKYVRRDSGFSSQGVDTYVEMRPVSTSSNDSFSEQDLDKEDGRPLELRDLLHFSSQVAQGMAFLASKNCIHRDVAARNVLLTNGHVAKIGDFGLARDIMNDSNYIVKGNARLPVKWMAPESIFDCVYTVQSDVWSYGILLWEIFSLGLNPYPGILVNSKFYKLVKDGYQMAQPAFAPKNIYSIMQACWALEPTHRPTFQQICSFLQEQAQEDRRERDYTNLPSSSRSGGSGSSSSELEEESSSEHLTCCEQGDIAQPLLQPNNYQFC

| Structure (SMILES) | IC50 (c-KIT) [nM] | IC50 (PDGFR beta) [nM] | IC50 (cFMS) [nM] |
| --- | --- | --- | --- |
| Cc1ncc(Cn2ncc3c(NC(=O)c4cnc5cc(OCCN6CCN(C)CC6)ccn45)cccc32)s1 [Example 149, 7-(2-(4-methylpiperazin-1-yl)ethoxy)-N-(1-((2-methylthiazol-5-yl)methyl)-1H-indazol-4-yl)imidazo[1,2-a]pyridine-3-carboxamide] | 4.8 | 1 | 2.2 |
| CN1CCN(CCOc2ccn3c(C(=O)Nc4cccc5c4cnn5Cc4ccccc4)cnc3c2)CC1 [Example 153, N-(1-benzyl-1H-indazol-4-yl)-7-(2-(4-methylpiperazin-1-yl)ethoxy)imidazo[1,2-a]pyridine-3-carboxamide] | 9.5 | 5 | 14.8 |
| Cc1nn(Cc2csc(C(C)C)n2)c2cccc(NC(=O)c3cnc4cc(OCCN5CCN(C(C)C)CC5)ccn34)c12 [Example 15, 7-(2-(4-isopropylpiperazin-1-yl)ethoxy)-N-(1-((2-isopropylthiazol-4-yl)methyl)-3-methyl-1H-indazol-4-yl)imidazo[1,2-a]pyridine-3-carboxamide] | 60.6 | 46.2 | 12 |
| Cc1nn(Cc2cc(C)n(C(C)C)n2)c2cccc(NC(=O)c3cnc4cc(OCCN5CCN(C(C)C)CC5)ccn34)c12 [Example 10, N-(1-((1-Isopropyl-5-methyl-1H-pyrazol-3-yl)methyl)-3-methyl-1H-indazol-4-yl)-7-(2-(4-isopropylpiperazin-1-yl)ethoxy)imidazo[1,2-a]pyridine-3-carboxamide] | 141 | 40.8 | 25.3 |
| Cc1nn(Cc2csc(C(C)C)n2)c2cccc(NC(=O)c3cnc4cc(OCCN5CCN(C)CC5)ccn34)c12 [Example 12, N-(1-((2-isopropylthiazol-4-yl)methyl)-3-methyl-1H-indazol-4-yl)-7-(2-(4-methylpiperazin-1-yl)ethoxy)imidazo[1,2-a]pyridine-3-carboxamide] | 50.4 | 44 | 11.4 |
| Cc1nn(Cc2cc(C)n(C(C)C)n2)c2cccc(NC(=O)c3cnc4cc(OCCN5CCCN(C)CC5)ccn34)c12 [Example 11, N-(1-((1-isopropyl-5-methyl-1H-pyrazol-3-yl)methyl)-3-methyl-1H-indazol-4-yl)-7-(2-(4-methyl-1,4-diazepan-1-yl)ethoxy)imidazo[1,2-a]pyridine-3-carboxamide] | 157 | 46.5 | 26.2 |
| COCCOc1ccn2c(C(=O)Nc3cccc4c3cnn4Cc3cccnc3C)cnc2c1 [Example 118, 7-(2-methoxyethoxy)-N-(1-((2-methylpyridin-3-yl)methyl)-1H-indazol-4-yl)imidazo[1,2-a]pyridine-3-carboxamide] | 581 | 178 | 310 |
| COCCOc1ccn2c(C(=O)Nc3cccc4c3cnn4Cc3cccc(C(N)=O)c3)cnc2c1 [Example 94, N-(1-(3-carbamoylbenzyl)-1H-indazol-4-yl)-7-(2-methoxyethoxy)imidazo[1,2-a]pyridine-3-carboxamide] | 94.8 | 65 | 46.9 |
| CN1CCN(CCOc2ccn3c(C(=O)Nc4cccc5c4cnn5Cc4ccc(C(F)(F)F)cn4)cnc3c2)CC1 [Example 103, 7-(2-(4-Methylpiperazin-1-yl)ethoxy)-N-(1-((5-(trifluoromethyl)pyridin-2-yl)methyl)-1H-indazol-4-yl)imidazo[1,2-a]pyridine-3-carboxamide trihydrochloride] | 7.2 | 2.7 | 7.3 |
| Cc1cc(Cn2ncc3c(NC(=O)c4cnc5cc(OCCN6CCN(C)CC6)ccn45)cccc32)nn1C(C)C [Example 139, N-(1-((1-isopropyl-5-methyl-1H-pyrazol-3-yl)methyl)-1H-indazol-4-yl)-7-(2-(4-methylpiperazin-1-yl)ethoxy)imidazo[1,2-a]pyridine-3-carboxamide] | 7.9 | 1.3 | 10.6 |
| COc1cccc(Cn2nc(C)c3c(NC(=O)c4cnc5cc(OCCN6CCN(C)CC6)ccn45)cccc32)n1 [Example 87, N-(1-((6-methoxypyridin-2-yl)methyl)-3-methyl-1H-indazol-4-yl)-7-(2-(4-methylpiperazin-1-yl)ethoxy)imidazo[1,2-a]pyridine-3-carboxamide] | 372 | 77.7 | 4.9 |
| CNC(=O)c1cccc(Cn2ncc3c(NC(=O)c4cnc5cc(OCCOC)ccn45)cccc32)c1 [Example 95, 7-(2-Methoxyethoxy)-N-(1-(3-(methylcarbamoyl)benzyl)-1H-indazol-4-yl)imidazo[1,2-a]pyridine-3-carboxamide] | 78.2 | 74.3 | 31.4 |
| COCCOc1ccn2c(C(=O)Nc3cccc4c3cnn4CC3CCCN(C(C)=O)C3)cnc2c1 (stereo not drawn) [Example 132, N-(1-((1-acetylpiperidin-3-yl)methyl)-1H-indazol-4-yl)-7-(2-methoxyethoxy)imidazo[1,2-a]pyridine-3-carboxamide] | 604 | 170 | 134 |
| COCCOc1ccn2c(C(=O)Nc3cccc4c3cnn4CC3CCCN(C(=O)OC(C)(C)C)C3)cnc2c1 (stereo not drawn) [Example 116, tert-butyl 3-((4-(7-(2-methoxyethoxy)imidazo[1,2-a]pyridine-3-carboxamido)-1H-indazol-1-yl)methyl)piperidine-1-carboxylate] | 192 | 54 | 185 |
| COCCOc1ccn2c(C(=O)Nc3cccc4c3cnn4Cc3ccc(OC)cc3)cnc2c1 [Example 114, N-(1-(4-methoxybenzyl)-1H-indazol-4-yl)-7-(2-methoxyethoxy)imidazo[1,2-a]pyridine-3-carboxamide] | 8.7 | 9.3 | 24.6 |
| O=C(Nc1cccc2c1cnn2Cc1ccccc1)c1cnc2cc(OCCN3CCOCC3)ccn12 [Example 90, N-(1-benzyl-1H-indazol-4-yl)-7-(2-morpholinoethoxy)imidazo[1,2-a]pyridine-3-carboxamide] | 25.8 | 5 | 9.8 |
| COCCOc1ccn2c(C(=O)Nc3cccc4c3cnn4CC3CC3)cnc2c1 [Example 110, N-(1-(cyclopropylmethyl)-1H-indazol-4-yl)-7-(2-methoxyethoxy)imidazo[1,2-a]pyridine-3-carboxamide] | 168 | 1000 | 380 |
| Cc1nn(Cc2cc(C)n(C(C)C)n2)c2cccc(NC(=O)c3cnc4cc(OCCN5C[C@@H](C)N(C)[C@@H](C)C5)ccn34)c12 [Example 9, N-(1-((1-isopropyl-5-methyl-1H-pyrazol-3-yl)methyl)-3-methyl-1H-indazol-4-yl)-7-(2-((3S,5R)-3,4,5-trimethylpiperazin-1-yl)ethoxy)imidazo[1,2-a]pyridine-3-carboxamide] | 143 | 166 | 21.2 |
| N#Cc1ccc2ncc(C(=O)Nc3cccc4c3cnn4Cc3ccccc3)n2c1 [Example 154, N-(1-benzyl-1H-indazol-4-yl)-6-cyanoimidazo[1,2-a]pyridine-3-carboxamide] | 150 | 186 | 143 |
